Assay results as given in patent US11446263B2, “Caspase inhibitor-containing drug for treating or preventing disorders caused by TGF-β, and applications thereof” (The Doshisha, priority 2015, dated 2022).

Key:
fibronectin = assay: Fibronectin production due to TGF-β2 in iFECD, immunostaining and western blot (Example 17); format: cell-based, human; details: TGF-β2 10 ng/mL, inhibitor 10 μM, 24 hours
Procedure: Round glass was placed on a 24-well plate, disinfected for 5 minutes with ethanol, and coated with laminin-511 E8 Fragment. Then, iFECDs were seeded at 4.0×10^5 each and cultured at 37° C. (5% CO2) until reaching 60 to 70% confluence. Dulbecco's Modified Eagle Medium (DMEM, nacalai tesque, 08456-36)+10% FBS (Thermo Fisher Scientific, S1820-500)+1% penicillin-streptomycin (nacalai tesque, 26252-94) was used as the medium. SB431542 (Wako Pure Chemical Industries, Ltd./192-16541), Z-VD-FMK (isomer mixture) (Wako Pure Chemical Industries, Ltd./262-02061), and emricasan (CHEMSCENE, LLC/CS-0599) were then added at a concentration of 10 μM, and the cells were incubated for 24 hours. The medium was exchanged in the control group and the TFG-β2 supplemented group. DMEM+2% FBS+1% P/S was used as the medium. TGF-β2 alone (10 ng/mL), or both TGF-β2 (10 ng/mL) and each inhibitor (10 μM) were then added. After 24 hours, immunostaining was performed by the following method.
Cells after 24 hours form stimulation were washed with PBS (−) and immobilized with 4% PFA for 10 minutes at room temperature. 0.5% Triton was used for 5 minutes for permeation treatment, and 1% BSA was used for blocking for 1 hour. […] A confocal microscope (Leica Microsystems CMS GmcH Am Friendensplatz 3 68165 Mannheim, Germany) was used to observe fluorescence. […]

p-Smad2 = p-Smad2 western blot in iFECD with TGF-β2 (Example 17); format: cell-based, human; details: TGF-β2 10 ng/mL, inhibitor 10 μM, 24 hours
Procedure: IFECDs were seeded at 1.0×10^5 each on a 12-well plate and cultured at 37° C. (5% CO2) until reaching 60 to 70% confluence. Dulbecco's Modified Eagle Medium (DMEM, nacalai tesque, 08456-36)+10% FBS (Thermo Fisher Scientific, S1820-500)+1% penicillin-streptomycin (nacalai tesque, 26252-94) was used as the medium. SB431542 (Wako Pure Chemical Industries, Ltd./192-16541), Z-VD-FMK (isomer mixture) (Wako Pure Chemical Industries, Ltd./262-02061), and emricasan (CHEMSCENE, LLC/CS-0599) were then added at a concentration of 10 μM, and the cells were incubated for 24 hours. The medium was exchanged in the control group and the TFG-β2 supplemented group. DMEM+2% FBS+1% P/S was used as the medium. TGF-β2 alone (10 ng/mL), or both TGF-β2 (10 ng/mL) and each inhibitor (10 μm) were added. After 24 hours, proteins were collected by the following method.
The medium was collected on ice to collect free and dead cells. The solution from washing the cells twice with 1×PBS (−) was also collected, and was centrifuged at 4° C. at 800×g for 15 minutes. The supernatant was discarded to obtain precipitates. […]
Chemi Lumi ONE Ultra (nacalai tesque, 11644-40) was used for detection. The detected band strength was analyzed with Amersham™ Imager 600 (GE Healthcare).

[1] = tested on: immobilized Fuchs' endothelial corneal dystrophy patient derived cells (iFECD); assay: Cell damage in iFECD due to TGF-β2, phase difference microscope (Example 9); format: cell-based, human; details: TGF-β2 10 ng/mL, inhibitor 10 μM, 24 hours
Procedure: 1.2×10^5 iFECDs were seeded on a 12-well plate coated without coating and were cultured for 24 hours under the condition of 5% CO2 at 37° C. Dulbecco's Modified Eagle Medium (nacalai tesque, 26252-94)+10% FBS (Biological Industries/04-001-1A)+1% Penicillin-Streptomycin (nacalai tesque, 26252-94) was used as the medium.
After 24 hours from seeding, each inhibitor was added at a concentration of 10 μM and the cells were incubated for 24 hours under the condition of 5% CO2 at 37° C. The medium was exchanged for the control group and the TGF-β2 group. DMEM+2% FBS+1% P/S was used as the medium.
SB431542 (Wako Pure Chemical Industries, Ltd./192-16541); Z-VAD-FMK (Peptide Institute/3188-v); Z-VD-FMK (isomer mixture) (Wako Pure Chemical Industries, Ltd./262-02061); and emricasan (CHEMSCENE, LLC/CS-0599).
Next, TGF-β2 (manufacturer: R&D Systems, Inc., distributor: Wako Pure Chemical Industries, Ltd./manufacturer codes 302-B2-002, 302-B2-010, distributor codes: 553-62881, 5-59-62883) (10 ng/mL) alone, or both TGF-β2 (10 ng/mL) and each inhibitor (10 μM) were added. After 24 hours, cell morphology and programmed cell death were observed using a phase difference microscope.

rabbit cornea = assay: Cornea preservation using rabbit cornea in Optisol-GS (Example 11); format: cell-based; details: 2 weeks of preservation at 4° C., 10 μM in Optisol-GS
Procedure: Rabbit eye balls after 0 to 24 hours from euthanasia were used in the experiment. Under a stereoscopic microscope, the sclera was excised using spring scissors along the corneal limbus, and the lens and iris were removed to prepare a sclerocornea fragment. The sclerocornea fragment was divided into two pieces as the control group and emricasan supplemented groups. After dividing the cornea, the control group was left standing in DMSO supplemented Optisol-GS® (Bausch & Lomb) and the caspase inhibitor supplemented groups were left standing in Optisol-GS® supplemented with emricasan for 2 weeks at 4° C.
After washing the sclerocornea fragment with PBS (−), the fragment was immobilized with 4% formaldehyde for 10 minutes at room temperature (RT) and incubated for 60 minutes with 1% bovine serum albumin (BSA). Antibodies to N-cadherin (BD Bioscience) and ZO-1 (Zymed Laboratories) were used at 1:300 dilution. For secondary antibodies, Alexa Fluor® 488 labeled goat anti-mouse IgG (Life Technologies, A11009) was used at a dilution of 1:1000. A 1:400 dilution of phalloidin (Life Technologies) 546 was used for actin staining. […] Fluorescence was observed using a confocal microscope (TCS SP2 AOBS; Leica Microsystems, Wetzlar Germany). Cells found to have actin contractile rings under a fluorescence microscope were counted to measure the ratio.

caspase 3 = assay: Western blot of caspase 3 after UV irradiation (Example 2); format: cell-based, monkey; details: UV 100 J/m^2, 9 hours
Procedure: 1×10^5 cultured monkey corneal endothelial cells were seeded on a 12-well plate coated with FNC Coating Mix and were cultured until reaching confluence under the condition of 5% CO2 at 37° C. Dulbecco's Modified Eagle Medium (DMEM) (Gibco, 12320-032)+10% FBS+1% Penicillin-Streptomycin (nacalai tesque, 26252-94) was used as the medium.
Each inhibitor was added at the above concentration. The cells were incubated for 18 hours under the condition of 5% CO2 at 37° C. The control group and the UV irradiation group were supplemented with a solvent of each reagent, i.e., DMSO (Dimethyl Sulfoxide, Sterile-filtered) (nacalai tesque, 13408-64). Gibco DMEM+1% P/S (penicillin-streptomycin mixture) was used as the medium.
The cell supernatant was then removed, and the cells were irradiated with UV (100 J/m^2). After irradiation, media containing each inhibitor were added to the cells again. The cells were cultured for 9 hours.
The cell morphology was observed under a phase difference microscope. After observation, western blot was performed on proteins by the following procedure.
The medium was collected on ice to collect free and dead cells. The solution from washing the cells twice with 1×PBS (−) was also collected. 800 g was centrifuged at 4° C. for 5 minutes. The supernatant was discarded to obtain precipitates. The washed cells were supplemented with a protein extraction buffer (RIPA; 50 mM Tris-HCl (pH 7.4), 150 mM NaCl, 1 mM EDTA, 0.1% SDS, 0.5% DOC, 1% NP-40) on ice to extract proteins. The precipitates from centrifuging the free and dead cells were also subsequently suspended together for extraction. The collected solution was pulverized three times for 30 seconds in cold water with a sonication device (BIORUPTOR, TOSHO DENKI) and centrifuged for 10 min at 4° C. at 15000 rpm to collect the supernatant of proteins.
8 μg of the extracted protein was separated by SDS-PAGE and transferred onto a nitrocellulose membrane. A rabbit anti-caspase 3 antibody (Cell Signaling, 9662), rabbit anti-PARP antibody (Cell Signaling, 9542), and mouse anti-GAPDH antibody (MBL, M171-3) were used as the primary antibodies. A peroxidase-labeled anti-rabbit antibody and anti-mouse antibody (GE Healthcare Biosciences, NA934V, NA931V) were used as the secondary antibodies. For the primary antibodies, rabbit anti-caspase 3 antibody and rabbit anti-PARP antibody: 1000-fold dilution and mouse anti-GAPDH antibody: 3000-fold dilution, while the secondary antibody was diluted 5000-fold. Chemi Lumi ONE Ultra (nacalai tesque, 11644-40) was used for detection. The detected band strength was analyzed with a lumino image analyzer LAS-4000 mini (Fuji Film) and ImageQuant™ software (GE Healthcare).

NC(=O)c1ccc(-c2nc(-c3ccc4c(c3)OCO4)c(-c3ccccn3)[nH]2)cc1 [SB431542]
expression / overexpression of fibronectin (fibronectin): suppressed | phosphorylated Smad2 (p-Smad2) (p-Smad2): not found | programmed cell death [1]: suppressed

C[C@H](NC(=O)C(=O)Nc1ccccc1C(C)(C)C)C(=O)N[C@@H](CC(=O)O)C(=O)COc1c(F)c(F)cc(F)c1F [emricasan, 3-[2-[(2-tert-butyl-phenylaminooxalyl)-amino]-propionylamino]-4-oxo-5-(2,3,5,6-tetrafluoro-phenoxy)-pentanoic acid]
expression / overexpression of fibronectin (fibronectin): suppressed | phosphorylated Smad2 (p-Smad2) (p-Smad2): found | actin contractile rings (rabbit cornea): significantly suppressed | cell damage (rabbit cornea): hardly any cell damage | inactive form cleaved caspase 3 of about 19 kDa (caspase 3; addition of 1 and 3 μM): hardly observed | active form cleaved caspase 3 of about 17 kDa (caspase 3; all tested concentrations): not observed | inactive form cleaved caspase 3 of about 19 kDa (caspase 3; other concentrations (10, 30, 100 μM)): not observed

CC(C)[C@@]1(C(=O)N[C@H]2CC(=O)O[C@]2(O)CF)CC(c2nccc3ccccc23)=NO1 [nivocasan, (R)—N-((2S,3S)-2-(fluoromethyl)-2-hydroxy-5-oxotetrahydrofuran-3-yl)-5-isopropyl-1-3-(isoquinoline-1-yl)-4,5-dihydroisoxazole-5-carboxamide]
effect of suppressing caspase 3 (caspase 3; concentration of 100 μM): observed
